Test results from BindingDB's records for patent US20240376119 (Cspc Zhongqi Pharmaceutical Technology (Shijiazhuang), 2024).

Target: T1, Tyrosine-protein phosphatase non-receptor type 11 (Homo sapiens, UniProt Q06124)
T1 sequence (Q06124 whole entry): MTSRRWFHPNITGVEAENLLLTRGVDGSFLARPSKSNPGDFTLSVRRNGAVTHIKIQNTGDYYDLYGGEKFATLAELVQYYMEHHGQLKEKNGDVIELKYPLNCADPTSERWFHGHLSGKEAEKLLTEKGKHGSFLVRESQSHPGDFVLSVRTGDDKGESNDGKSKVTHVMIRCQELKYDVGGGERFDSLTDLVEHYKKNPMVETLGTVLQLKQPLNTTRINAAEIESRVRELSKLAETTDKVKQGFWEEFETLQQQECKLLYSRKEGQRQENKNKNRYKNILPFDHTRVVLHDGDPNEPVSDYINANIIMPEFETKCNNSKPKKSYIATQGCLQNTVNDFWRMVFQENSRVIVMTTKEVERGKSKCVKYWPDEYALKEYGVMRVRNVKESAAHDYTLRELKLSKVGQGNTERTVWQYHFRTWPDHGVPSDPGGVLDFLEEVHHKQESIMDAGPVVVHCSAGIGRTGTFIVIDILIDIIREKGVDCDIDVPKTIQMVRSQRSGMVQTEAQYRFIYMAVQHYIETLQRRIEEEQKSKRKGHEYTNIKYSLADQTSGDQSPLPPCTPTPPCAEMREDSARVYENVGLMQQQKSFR
Test: Assay for the inhibitory effect on the SHP2 enzyme
Experimental: A mixed liquor of 2× working SHP2 reagent (0.4 nM) and 0.5 μM SHP-2 activated peptide (BPS bioscience #79319-2) was prepared with 1× enzyme buffer. After the above-mixed liquor was incubated at 25° C. for 60 minutes, 5 μL of activated SHP2 kinase solution was transferred with a pipettor to the compound wells and the Max control wells (Corning, #4514) of the plate. Then 5 μL of 1× kinase buffer was transferred to the Min control wells. The plate was centrifuged at 1000 rpm for 30 seconds, sealed, and incubated in a 25° C. constant-temperature incubator for 30 minutes. A substrate solution of DiFMUP (#D6567, Invitrogen™) was prepared with 1× kinase buffer, and its concentration should be 2 times as the final concentration of the assay (DiFMUP final concentration: 10 μM). 5 μL of the prepared substrate solution was transferred with an electric pipettor into each well of the ELISA plate to start the reaction. The plate was centrifuged at 1000 rpm for 30 seconds, sealed, and incubated in a 25° C. constant-temperature incubator for 60 minutes. Read the plate at the excitation/emission wavelength of 358/455 nm after the ELISA plate was placed on the Spark machine.

IC50: in the range around 0.02 µM
Compound: COC(=O)c1nc(Sc2cccc(-c3ccn(C)n3)c2Cl)cnc1N1CCC2(CC1)Cc1ccccc1[C@H]2N [US20240376119, Example 19]
